Laboratory results published in patent US10030016B2 (Sunesis Pharmaceuticals, Inc., priority 2009, dated 2018).
Like-named read-outs stand apart in the source and are kept apart here.

Legend:
[1] = tested on: phospho-akt (Thr308) in PC-3 cells; test: Inhibition of phospho-akt (Thr308) in PC-3 cells, MSD phospho-akt 308 ELISA kit; assay type: cell-based; conditions: inhibition of P308 Akt in PC-3 cells using MSD, 2 hours, no serum, read-out: EC50
Summary of the method: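 Read-out is MSD electrochemiluminescence of Akt phosphorylated at Thr308 in lysates of PC-3 cells treated 2 h with compound in serum-free medium. Wortmannin at 5 μM defined the low control and DMSO the high control.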

PDK1 = PDK1 (Homo sapiens (Human), UniProt O15530); test: PDK1 kinase assay (coupled PDK1/AKT/FAM-crosstide assay, IMAP fluorescence polarization); assay type: biochemical
Summary of the method: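 GST-tagged human PDK1 (aa 51-359, 0.75 nM) from insect cells activated unphosphorylated GST-AKT2 (aa 140-467–PIFtide fusion, 10 nM), which phosphorylated 100 nM FAM-crosstide; 40 μM ATP, pH 7.2 Tris/MgCl2, 30 min at 25° C. IMAP fluorescence polarization read-out; ΔmP versus compound concentration fitted with a 4-parameter curve.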

[2] = inhibition of phospo-PDK1 in vitro

Sequence of PDK1 (O15530 51-359): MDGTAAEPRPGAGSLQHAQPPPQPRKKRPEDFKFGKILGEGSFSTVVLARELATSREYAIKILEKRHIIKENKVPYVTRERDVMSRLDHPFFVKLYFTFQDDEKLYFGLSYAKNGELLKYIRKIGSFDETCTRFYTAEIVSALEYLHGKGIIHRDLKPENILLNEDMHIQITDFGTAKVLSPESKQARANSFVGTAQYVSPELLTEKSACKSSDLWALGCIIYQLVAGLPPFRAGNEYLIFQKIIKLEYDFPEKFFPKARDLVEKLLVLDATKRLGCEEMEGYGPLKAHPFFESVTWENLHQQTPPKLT

Compound	EC50 ([1]; Homo sapiens) [nM]	IC50 (PDK1; inhibition of PDK1 in vitro) [nM]	EC50 ([1]; Homo sapiens, PC-3, 2 h) [nM]	IC50 (PDK1; [2]) [nM]	EC50 [1] [nM]
C[C@H](NC(=O)c1cc(C#N)cnc1N[C@H](C)c1ccc(-c2c[nH]c3ncnc(N)c23)cc1)c1ccc(F)cc1 [Example 432, 2-{(R)-1-[4-(4-Amino-7H-pyrrolo[2,3-d]pyrimidin-5-yl)-phenyl]-ethylamino}-5-cyano-N-[(S)-1-(4-fluoro-phenyl)-ethyl]-nicotinamide]	< 1000	< 100			
C[C@@H](Nc1ncc(C(F)(F)F)cc1C(=O)Nc1ccc(F)cc1)c1ccc(-c2c[nH]c3ncnc(N)c23)cc1 [Example 433, 2-{(R)-1-[4-(4-Amino-7H-pyrrolo[2,3-d]pyrimidin-5-yl)-phenyl]-ethylamino}-N-(4-fluoro-phenyl)-5-trifluoromethyl-nicotinamide]	1000 to 10000	< 100			
C[C@H](NC(=O)c1cc(C#N)cnc1N[C@H](C)c1ccc(-c2cn(C)c3ncnc(N)c23)cc1)c1ccc(F)cc1 [Example 434, 2-{(R)-1-[4-(4-Amino-7-methyl-7H-pyrrolo[2,3-d]pyrimidin-5-yl)-phenyl]-ethylamino}-5-cyano-N-[(S)-1-(4-fluoro-phenyl)-ethyl]-nicotinamide]	< 1000	< 100			
C[C@H](NC(=O)c1cc(C#N)cnc1N[C@H](C)c1ccc(-c2cnc3[nH]nc(N)c3n2)cc1)c1ccc(F)cc1 [Example 435, 2-{(R)-1-[4-(3-Amino-1H-pyrazolo[3,4-b]pyrazin-5-yl)-phenyl]-ethylamino}-5-cyano-N-[(S)-1-(4-fluoro-phenyl)-ethyl]-nicotinamide]	< 1000	< 100			
C[C@H](NC(=O)c1cc(C#N)cnc1Nc1ccc(-c2c[nH]c3ncnc(N)c23)cc1)c1ccc(F)cc1 [Example 436, (S)-2-(4-(4-amino-7H-pyrrolo[2,3-d]pyrimidin-5-yl)phenylamino)-5-cyano-N-(1-(4-fluorophenyl)ethyl)nicotinamide]	1000 to 10000	100 to 1000			
Nc1n[nH]c2ncc(-c3ccc(CNc4ncc(C(F)(F)F)cc4C(=O)N[C@H](CO)c4ccc(Br)cc4)cc3)cc12 [Example 437, (S)-2-(4-(3-amino-1H-pyrazolo[3,4-b]pyridin-5-yl)benzylamino)-N-(1-(4-bromophenyl) 2-hydroxyethyl)-5-(trifluoromethyl)nicotinamide]	> 10000	1000 to 5000			
Cc1cccc(Cl)c1NC(=O)c1cc(C(F)(F)F)cnc1NCc1ccc(-c2cnc3[nH]nc(N)c3c2)cc1 [Example 438, 2-(4-(3-amino-1H-pyrazolo[3,4-b]pyridin-5-yl)benzylamino)-N-(2-chloro-6-methyl-phenyl)-5-(trifluoro-methyl)nicotinamide]		1000 to 5000	> 10000		
N#Cc1cccc(NC(=O)c2cc(C(F)(F)F)cnc2NCc2ccc(-c3cnc4[nH]nc(N)c4c3)cc2)c1 [Example 439, 2-(4-(3-amino-1H-pyrazolo[3,4-b]pyridin-5-yl)benzylamino)-N-(3-cyanophenyl)-5-(trifluoromethyl) nicotinamide]	1000 to 10000	< 100			
CN1CCN(Cc2cccc(NC(=O)c3cc(C(F)(F)F)cnc3NCc3ccc(-c4cnc5[nH]nc(N)c5c4)cc3)c2)CC1 [Example 440, 2-(4-(3-amino-1H-pyrazolo[3,4-b]pyridin-5-yl)benzylamino)-N-(3-((4-methylpiperazin-1-yl)methyl)phenyl)-5-(trifluoromethyl)nicotinamide]	1000 to 10000	100 to 1000			
CCC(C)n1cc(-c2ccc(CNc3ncc(C(F)(F)F)cc3C(=O)Nc3ccc(F)cc3)cc2)c2c(N)ncnc21 (centres unmarked) [Example 441, 2-(4-(4-amino-7-sec-butyl-7H-pyrrolo[2,3-d]pyrimidin-5-yl)benzylamino)-N-(4-fluorophenyl)-5-(trifluoromethyl)nicotinamide]	> 10000			< 100	
CC(C)n1cc(-c2ccc(CNc3ncc(C(F)(F)F)cc3C(=O)Nc3ccc(F)cc3)cc2)c2c(N)ncnc21 [Example 442, 2-(4-(4-amino-7-isopropyl-7H-pyrrolo[2,3-d]pyrimidin-5-yl)benzylamino)-N-(4-fluorophenyl)-5-(trifluoromethyl)nicotinamide]	< 1000			< 100	
Nc1ncnc2c1c(-c1ccc(CNc3ncc(C(F)(F)F)cc3C(=O)Nc3ccc(F)cc3)cc1)cn2C1COC1 [Example 443, 2-(4-(4-amino-7-(oxetan-3-yl)-7H-pyrrolo[2,3-d]pyrimidin-5-yl)benzylamino)-N-(4-fluorophenyl)-5-(trifluoromethyl)nicotinamide]	< 1000			< 100	
(S)-2-(4-(4-amino-7-methyl- 7H-pyrrolo[2,3-d]pyrimidin- 5-yl)benzylamino)-fluorophenyl) ethyl)nicotinamide [Example 97]		< 100			< 1000
